Results from article PMC6370209, “Rapid and sensitive detection of NADPH via mBFP-mediated enhancement of its fluorescence” (PLoS ONE, 2019).

Tests used:
NAD(H) kinase (MfnK) = target: T1, NAD(H) kinase (MfnK) (Micrococcus luteus, UniProt Q8VUL9); experiment: NADPH formation detected by mBFP fluorescence; type: biochemical; conditions: 50 mM Tris-HCl pH 7.5, 0.1 mM MgCl2, 0.5 mM ATP, 0.5 mM NADH
T1 construct: full-length gene from genomic DNA, C-terminal His tag (pET-22b(+)), expressed in E. coli BL21(DE3), purified
T1 sequence (Q8VUL9 1-362): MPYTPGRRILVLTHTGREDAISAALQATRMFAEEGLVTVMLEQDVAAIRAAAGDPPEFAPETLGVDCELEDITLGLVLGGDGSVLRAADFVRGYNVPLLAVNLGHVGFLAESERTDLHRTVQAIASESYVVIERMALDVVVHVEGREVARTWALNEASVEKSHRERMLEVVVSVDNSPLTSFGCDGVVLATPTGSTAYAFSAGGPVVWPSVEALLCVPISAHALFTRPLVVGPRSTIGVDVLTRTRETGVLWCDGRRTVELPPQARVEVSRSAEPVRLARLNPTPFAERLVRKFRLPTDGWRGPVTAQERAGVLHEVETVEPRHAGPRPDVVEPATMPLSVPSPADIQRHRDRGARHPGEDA

[1] = target: T2, mBFP (metagenome-derived blue fluorescent protein) (uncultured bacterium, UniProt D6NKF4); experiment: fluorescence enhancement of NADPH upon mBFP addition (ex […] nm, em […] nm); type: binding; conditions: […] Tris-HCl pH […] °C
T2 construct: full length, 248 amino acids, N-terminal 6-His tag kept (pQE30), expressed in E. coli XL1-Blue
T2 sequence (D6NKF4 1-248): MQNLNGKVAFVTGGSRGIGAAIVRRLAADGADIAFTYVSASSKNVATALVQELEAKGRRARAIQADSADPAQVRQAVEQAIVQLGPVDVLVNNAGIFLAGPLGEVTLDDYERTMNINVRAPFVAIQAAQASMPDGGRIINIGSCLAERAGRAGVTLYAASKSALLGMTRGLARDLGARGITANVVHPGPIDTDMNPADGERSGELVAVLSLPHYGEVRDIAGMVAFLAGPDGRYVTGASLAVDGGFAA

[2] = target: T2, mBFP (metagenome-derived blue fluorescent protein); experiment: competition with NADPH, attenuation of mBFP-NADPH fluorescence; type: binding; conditions: […] Tris-HCl pH […] °C; competitive with NADPH; excess NADP+

Q: How did the “NADPH formation detected by mBFP fluorescence” value (NAD(H) kinase (MfnK)) turn out when `NC(=O)C1=CN([C@@H]2O[C@H](COP(=O)(O)OP(=O)(O)OC[C@H]3O[C@@H](n4cnc5c(N)ncnc54)[C@H](O)[C@@H]3O)[C@@H](O)[C@H]2O)C=CC1` [NADH] was run?
A: Its value is “enzymatic conversion of NADH to NADPH by MfnK as a function of the NADH amount”.

Q: With `NC(=O)C1=CN([C@@H]2O[C@H](COP(=O)(O)OP(=O)(O)OC[C@H]3O[C@@H](n4cnc5c(N)ncnc54)[C@H](OP(=O)(O)O)[C@@H]3O)[C@@H](O)[C@H]2O)C=CC1` [NADPH] as the compound, how does the “fluorescence enhancement of NADPH upon mBFP addition (ex 350 nm, em 450 nm)” value [1] read?
A: The value was “An immediate enhancement of fluorescence was detected when the purified mBFP was added”.

Q: For `NC(=O)c1ccc[n+]([C@@H]2O[C@H](COP(=O)(O)OP(=O)(O)OC[C@H]3O[C@@H](n4cnc5c(N)ncnc54)[C@H](OP(=O)(O)O)[C@@H]3O)[C@@H](O)[C@H]2O)c1` [NADP^+], which “competition with NADPH, attenuation of mBFP-NADPH fluorescence” value [2] is on record?
A: The value was “excess NADP^+ resulted in competition for mBFP binding and attenuated the NADPH fluorescence enhancement”.
